Source: PubChem BioAssay (NCI)
Several values for one entry are separate records, joined by “and”; a condition that tells them apart may be missing. Equal values may be shown once.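 How tested: cells in 96-well plates exposed to compound for 48 hours at five concentrations. Abbreviation: GI50, concentration required for 50% inhibition of growth. TGI is the concentration that stops growth completely.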

How the values were obtained:
Test in all cases: inhibition of tumour cell growth, NCI panel, 48 h
[1] = tested on: SF-539 CNS
[2] = tested on: NCI-H460 lung
[3] = tested on: SNB-75 CNS
[4] = tested on: A549 NSCLC
[5] = tested on: CCRF-CEM leukemia
[6] = tested on: K-562 leukemia
[7] = tested on: NCI-H23 lung
[8] = tested on: COLO 205 colon
[9] = tested on: T-47D breast
[10] = tested on: SN12C renal
[11] = tested on: BT-549 breast

Compound | GI50 [1] | TGI [1] | GI50 [2] | TGI [2] | GI50 [3] | TGI [3] | TGI [4] | GI50 [5] | TGI [5] | GI50 [6] | TGI [6] | GI50 [7] | TGI [7] | GI50 [8] | TGI [8] | TGI [9] | GI50 [10] | TGI [10] | TGI [11]
COc1ccc(CC2C(=O)NC(C)C(=O)N(C)C3Cc4ccc(cc4)Oc4cc(ccc4O)CC(C(=O)NC(C)C(=O)NC(C)C(=O)N2C)N(C)C3=O)cc1 (configuration not stated) | < 0.0001 µM | 0.0219 µM and 0.0288 µM | 0.000156 µM | 0.0284 µM and 0.106 µM and 0.0325 µM | < 0.0001 µM | 0.0214 µM | 0.193 µM and 0.599 µM and 0.306 µM | < 0.0001 µM | 0.122 µM | < 0.0001 µM | 2.01 µM | < 0.0001 µM | 0.0293 µM and 0.0212 µM and 0.158 µM | 0.000278 µM | 0.0745 µM | 0.201 µM and 0.0219 µM | 0.208 µM | 0.281 µM and 0.536 µM | –
COc1ccc(-c2c(C(C)=O)c(C)n(C3OC(CO)C(O)C(O)C3O)c(=S)c2C#N)cc1 (configuration not stated) | – | > 100 µM | – | > 100 µM | – | > 100 µM | > 100 µM | – | > 100 µM | – | > 100 µM | – | > 100 µM | – | > 100 µM | > 100 µM | – | > 100 µM | > 100 µM
NC(CO)c1ccccc1 (configuration not stated) | – | > 100 µM | – | > 100 µM | – | > 100 µM | > 100 µM | – | > 100 µM | – | – | – | – | – | – | – | – | – | –
CCOC(=O)C(Cc1c(-c2[nH]c3ccccc3c2CC(NC(=O)CNC(C)=O)C(=O)OCC)[nH]c2ccccc12)NC(=O)CNC(C)=O (configuration not stated) | – | – | – | > 100 µM | – | 93.6 µM | > 100 µM | – | > 100 µM | – | – | – | > 100 µM | – | 35.4 µM | – | – | > 100 µM | > 100 µM
CC(=O)c1nccc2c1c(C)nc1ccccc12 | – | > 100 µM | – | > 100 µM | – | > 100 µM | > 100 µM | – | 68.6 µM | – | > 100 µM | – | > 100 µM | – | > 100 µM | > 100 µM | – | > 100 µM | > 100 µM
C=C1C(=O)C[C@@]23CCC[C@@]12CC(O)C3 (some centres not stated) | – | 61.3 µM | – | 54.1 µM | – | 48.7 µM | > 100 µM | – | 56.2 µM | – | > 87 µM | – | 53.8 µM | – | 41.1 µM | – | – | 38.1 µM | –
